In ChEMBL document CHEMBL3137667, “[Drug-induced liver injury; fourteenth updated edition of the bibliographic database of liver injuries and related drugs]” (Gastroenterol Clin Biol, 2004):

Legend:
[1] = Highest frequency of moderate liver toxicity observed during clinical trials, expressed as a percentage. [column '% BIOL' in source]; conditions: human
[2] = Highest frequency of acute liver toxicity observed during clinical trials, expressed as a percentage. [column '% AIGUE' in source]; conditions: human
[3] = Presence of at least one case with successful reintroduction. [column 'REINT' in source]; conditions: human
[4] = Comments (NB not yet translated). [column 'COMMENTAIRES' in source]; conditions: human
[5] = Times to onset, minimal and maximal, observed in the indexed observations. [column 'DELAI' in source]; conditions: human
[6] = human, serum
[7] = human, serum; remark: listed apart in the source
[8] = human
[9] = human; remark: listed apart in the source
[10] = human; remark: listed apart in the source
[11] = human, serum, 4383 h
[12] = human; remark: listed apart in the source
[13] = human; remark: listed apart in the source
[14] = human; remark: listed apart in the source
[15] = human; remark: listed apart in the source
[16] = human; remark: listed apart in the source
[17] = human; remark: listed apart in the source
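Throughout, for Hepatotoxicity (association with vascular disease): count of indexed literature references reporting vascular liver injury in humans, e.g. peliosis hepatitis, hepatic veno-occlusive disease or Budd-Chiari syndrome.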
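Throughout, for Hepatotoxicity (benign tumour): value is a count of indexed literature references citing a benign tumour confirmed by histopathology.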
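Throughout, for Hepatotoxicity (choleostasis): human cholestatic liver injury, shown by histopathology or by peak ALT or AST elevation over alkaline phosphatase ratio below 2, value counts indexed literature reports.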
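Throughout, for Hepatotoxicity (chronic liver disease): chronic liver injury confirmed by histopathology or persistently raised serum aminotransferase activity beyond 6 months, value given as the count of indexed literature references.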
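Throughout, for Hepatotoxicity (cirrhosis): value is a count of indexed literature references reporting cirrhosis confirmed by histopathology.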
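Throughout, for Hepatotoxicity (cytolytic): human cytolytic liver injury, shown by histopathology or by a ratio above 5 of peak ALT or AST elevation to alkaline phosphatase elevation, value counts indexed references.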
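Throughout, for Hepatotoxicity (granulomatous hepatitis): value is a count of indexed literature references reporting granulomatous liver disease confirmed by histopathology.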
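Throughout, for Hepatotoxicity (malignant tumour): malignant tumour confirmed by histopathology, value gives the count of indexed literature references reporting it.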
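Throughout, for Hepatotoxicity (severe hepatitis): human clinical data: severe hepatitis, meaning potentially life-threatening liver failure or clinically observed cases, the value counts how many indexed literature references report it.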
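Throughout, for Hepatotoxicity (steatosis): steatosis confirmed by histopathology, value is the count of indexed references.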

CC(=O)CC(c1ccc([N+](=O)[O-])cc1)c1c(O)c2ccccc2oc1=O (stereo unspecified) [ACENOCOUMAROL]
Hepatotoxicity (moderate) [1]: 0%
Hepatotoxicity (acute) [2]: 0%
Hepatotoxicity (successful reintroduction) [3]: yes
Hepatotoxicity (comment) [4]: RC/PHENPROCOUMON CHOLESTASE_PROLONGEE
Hepatotoxicity (time to onset) [5]: 2 days - 5 years
Hepatotoxicity (moderate) [6]: 2
Hepatotoxicity (acute) [7]: 8
Hepatotoxicity (cytolytic) [8]: 3
Hepatotoxicity (choleostasis) [9]: 6
Hepatotoxicity (severe hepatitis) [10]: 0
Hepatotoxicity (chronic liver disease) [11]: 1
Hepatotoxicity (cirrhosis) [12]: 0
Hepatotoxicity (granulomatous hepatitis) [13]: 0
Hepatotoxicity (association with vascular disease) [14]: 0
Hepatotoxicity (steatosis) [15]: 0
Hepatotoxicity (malignant tumour) [16]: 0
Hepatotoxicity (benign tumour) [17]: 0

CCN(CCCc1ccccc1)CCCc1ccccc1 [ALVERINE]
Hepatotoxicity (moderate) [1]: 0%
Hepatotoxicity (acute) [2]: 0%
Hepatotoxicity (successful reintroduction) [3]: yes
Hepatotoxicity (comment) [4]: AC_ANTI-N
Hepatotoxicity (time to onset) [5]: 4 days - 40 days
Hepatotoxicity (moderate) [6]: 0
Hepatotoxicity (acute) [7]: 2
Hepatotoxicity (cytolytic) [8]: 2
Hepatotoxicity (choleostasis) [9]: 0
Hepatotoxicity (severe hepatitis) [10]: 0
Hepatotoxicity (chronic liver disease) [11]: 0
Hepatotoxicity (cirrhosis) [12]: 0
Hepatotoxicity (granulomatous hepatitis) [13]: 0
Hepatotoxicity (association with vascular disease) [14]: 0
Hepatotoxicity (steatosis) [15]: 0
Hepatotoxicity (malignant tumour) [16]: 0
Hepatotoxicity (benign tumour) [17]: 0

CC(NC(C)(C)C)C(=O)c1cccc(Cl)c1 (stereo unspecified) [BUPROPION]
Hepatotoxicity (moderate) ([1]; Liver): 0%
Hepatotoxicity (acute) ([2]; Liver): 0%
Hepatotoxicity (successful reintroduction) [3]: yes
Hepatotoxicity (comment) [4]: PERICHOLANGITE
Hepatotoxicity (time to onset) [5]: 4 days - 80 days
Hepatotoxicity (moderate) [6]: 1
Hepatotoxicity (acute) [7]: 4
Hepatotoxicity (cytolytic) [8]: 4
Hepatotoxicity (choleostasis) [9]: 2
Hepatotoxicity (severe hepatitis) ([10]; Liver): 1
Hepatotoxicity (chronic liver disease) [11]: 0
Hepatotoxicity (cirrhosis) [12]: 0
Hepatotoxicity (granulomatous hepatitis) [13]: 0
Hepatotoxicity (association with vascular disease) [14]: 0
Hepatotoxicity (steatosis) [15]: 0
Hepatotoxicity (malignant tumour) [16]: 0
Hepatotoxicity (benign tumour) [17]: 0

O=C(N[C@H](CO)[C@H](O)c1ccc([N+](=O)[O-])cc1)C(Cl)Cl [CHLORAMPHENICOL]
Hepatotoxicity (moderate) [1]: 46.2%
Hepatotoxicity (acute) [2]: 7.7%
Hepatotoxicity (successful reintroduction) [3]: yes
Hepatotoxicity (comment) [4]: RC/COTRIMOXAZOLE
Hepatotoxicity (time to onset) [5]: 1 month - 2 months
Hepatotoxicity (moderate) [6]: 1
Hepatotoxicity (acute) [7]: 14
Hepatotoxicity (cytolytic) [8]: 2
Hepatotoxicity (choleostasis) [9]: 1
Hepatotoxicity (severe hepatitis) [10]: 0
Hepatotoxicity (chronic liver disease) [11]: 0
Hepatotoxicity (cirrhosis) [12]: 0
Hepatotoxicity (granulomatous hepatitis) [13]: 0
Hepatotoxicity (association with vascular disease) [14]: 0
Hepatotoxicity (steatosis) [15]: 1
Hepatotoxicity (malignant tumour) [16]: 0
Hepatotoxicity (benign tumour) [17]: 0

C[C@]12CC[C@@H]3c4ccc(OC(=O)N(CCCl)CCCl)cc4CC[C@H]3[C@@H]1CC[C@@H]2O [ESTRAMUSTINE]
Hepatotoxicity (moderate) [1]: 2%
Hepatotoxicity (acute) [2]: 2%
Hepatotoxicity (successful reintroduction) [3]: yes
Hepatotoxicity (comment) [4]: NASH
Hepatotoxicity (time to onset) [5]: 1 month
Hepatotoxicity (moderate) [6]: 3
Hepatotoxicity (acute) [7]: 2
Hepatotoxicity (cytolytic) [8]: 1
Hepatotoxicity (choleostasis) [9]: 0
Hepatotoxicity (severe hepatitis) [10]: 0
Hepatotoxicity (chronic liver disease) [11]: 1
Hepatotoxicity (cirrhosis) [12]: 0
Hepatotoxicity (granulomatous hepatitis) [13]: 0
Hepatotoxicity (association with vascular disease) [14]: 0
Hepatotoxicity (steatosis) [15]: 1
Hepatotoxicity (malignant tumour) [16]: 0
Hepatotoxicity (benign tumour) [17]: 0

CCOC(=O)/C=C(C)/C=C/C=C(C)/C=C/c1c(C)cc(OC)c(C)c1C [ETRETINATE]
Hepatotoxicity (moderate) [1]: 33%
Hepatotoxicity (acute) [2]: 1.5%
Hepatotoxicity (successful reintroduction) [3]: yes
Hepatotoxicity (comment) [4]: I/METHOTREXATE CHOLANGITE
Hepatotoxicity (time to onset) [5]: 1 week - 1 year
Hepatotoxicity (moderate) [6]: 31
Hepatotoxicity (acute) [7]: 20
Hepatotoxicity (cytolytic) [8]: 12
Hepatotoxicity (choleostasis) [9]: 6
Hepatotoxicity (severe hepatitis) [10]: 2
Hepatotoxicity (chronic liver disease) [11]: 7
Hepatotoxicity (cirrhosis) [12]: 1
Hepatotoxicity (granulomatous hepatitis) [13]: 1
Hepatotoxicity (association with vascular disease) [14]: 0
Hepatotoxicity (steatosis) [15]: 5
Hepatotoxicity (malignant tumour) [16]: 0
Hepatotoxicity (benign tumour) [17]: 0

NC(N)=Nc1nc(CSCCC(N)=NS(N)(=O)=O)cs1 [FAMOTIDINE]
Hepatotoxicity (moderate) ([1]; Liver): 2.8%
Hepatotoxicity (acute) ([2]; Liver): 0%
Hepatotoxicity (successful reintroduction) [3]: yes
Hepatotoxicity (comment) [4]: RC/CIMETIDINE
Hepatotoxicity (time to onset) [5]: 3 days - 3 weeks
Hepatotoxicity (moderate) [6]: 12
Hepatotoxicity (acute) [7]: 5
Hepatotoxicity (cytolytic) ([8]; Liver): 4
Hepatotoxicity (choleostasis) ([9]; Liver): 0
Hepatotoxicity (severe hepatitis) ([10]; Liver): 0
Hepatotoxicity (chronic liver disease) [11]: 0
Hepatotoxicity (cirrhosis) [12]: 0
Hepatotoxicity (granulomatous hepatitis) ([13]; Liver): 0
Hepatotoxicity (association with vascular disease) [14]: 0
Hepatotoxicity (steatosis) [15]: 0
Hepatotoxicity (malignant tumour) [16]: 0
Hepatotoxicity (benign tumour) [17]: 0

OCCN1CCN(CCCN2c3ccccc3Sc3ccc(C(F)(F)F)cc32)CC1 [FLUPHENAZINE]
Hepatotoxicity (moderate) [1]: 0%
Hepatotoxicity (acute) [2]: 1%
Hepatotoxicity (successful reintroduction) [3]: yes
Hepatotoxicity (comment) [4]: RC/HALOPERIDOL
Hepatotoxicity (time to onset) [5]: 2 weeks
Hepatotoxicity (moderate) [6]: 2
Hepatotoxicity (acute) [7]: 5
Hepatotoxicity (cytolytic) [8]: 1
Hepatotoxicity (choleostasis) [9]: 4
Hepatotoxicity (severe hepatitis) [10]: 0
Hepatotoxicity (chronic liver disease) [11]: 0
Hepatotoxicity (cirrhosis) [12]: 0
Hepatotoxicity (granulomatous hepatitis) [13]: 0
Hepatotoxicity (association with vascular disease) [14]: 0
Hepatotoxicity (steatosis) [15]: 0
Hepatotoxicity (malignant tumour) [16]: 0
Hepatotoxicity (benign tumour) [17]: 0

CC(CCc1ccccc1)NCC(O)c1ccc(O)c(C(N)=O)c1 (stereo unspecified) [LABETALOL]
Hepatotoxicity (moderate) [1]: 20.5%
Hepatotoxicity (acute) [2]: 0.9%
Hepatotoxicity (successful reintroduction) [3]: yes
Hepatotoxicity (comment) [4]: AC_ANTI-N
Hepatotoxicity (time to onset) [5]: 3 weeks - 6 months
Hepatotoxicity (moderate) [6]: 5
Hepatotoxicity (acute) [7]: 6
Hepatotoxicity (cytolytic) [8]: 6
Hepatotoxicity (choleostasis) [9]: 0
Hepatotoxicity (severe hepatitis) [10]: 4
Hepatotoxicity (chronic liver disease) [11]: 0
Hepatotoxicity (cirrhosis) [12]: 0
Hepatotoxicity (granulomatous hepatitis) [13]: 0
Hepatotoxicity (association with vascular disease) [14]: 0
Hepatotoxicity (steatosis) [15]: 0
Hepatotoxicity (malignant tumour) [16]: 0
Hepatotoxicity (benign tumour) [17]: 0

Nc1ccn([C@@H]2CS[C@H](CO)O2)c(=O)n1 [LAMIVUDINE]
Hepatotoxicity (moderate) ([1]; Liver): 44%
Hepatotoxicity (acute) ([2]; Liver): 12.5%
Hepatotoxicity (successful reintroduction) [3]: yes
Hepatotoxicity (comment) [4]: REACTIVATION_HVB REACTIVATION_HVC
Hepatotoxicity (time to onset) [5]: 10 days - 3 years
Hepatotoxicity (moderate) [6]: 15
Hepatotoxicity (acute) [7]: 30
Hepatotoxicity (cytolytic) [8]: 26
Hepatotoxicity (choleostasis) [9]: 1
Hepatotoxicity (severe hepatitis) ([10]; Liver): 15
Hepatotoxicity (chronic liver disease) [11]: 1
Hepatotoxicity (cirrhosis) [12]: 0
Hepatotoxicity (granulomatous hepatitis) [13]: 0
Hepatotoxicity (association with vascular disease) [14]: 0
Hepatotoxicity (steatosis) [15]: 13
Hepatotoxicity (malignant tumour) [16]: 0
Hepatotoxicity (benign tumour) [17]: 0

c1ccc([C@H]2CN3CCSC3=N2)cc1 [LEVAMISOLE]
Hepatotoxicity (moderate) ([1]; Liver): 61.2%
Hepatotoxicity (acute) ([2]; Liver): 0%
Hepatotoxicity (successful reintroduction) [3]: yes
Hepatotoxicity (comment) [4]: I/FLUOROURACIL
Hepatotoxicity (time to onset) [5]: 1 month - 1 year
Hepatotoxicity (moderate) [6]: 11
Hepatotoxicity (acute) [7]: 0
Hepatotoxicity (cytolytic) ([8]; Liver): 0
Hepatotoxicity (choleostasis) ([9]; Liver): 0
Hepatotoxicity (severe hepatitis) ([10]; Liver): 0
Hepatotoxicity (chronic liver disease) [11]: 0
Hepatotoxicity (cirrhosis) [12]: 0
Hepatotoxicity (granulomatous hepatitis) ([13]; Liver): 0
Hepatotoxicity (association with vascular disease) [14]: 0
Hepatotoxicity (steatosis) [15]: 6
Hepatotoxicity (malignant tumour) [16]: 0
Hepatotoxicity (benign tumour) [17]: 0

C[C@]12CCC(=O)C=C1CC[C@@H]1[C@@H]2CC[C@@]2(C)[C@H]1CC[C@]2(C)O [METHYLTESTOSTERONE]
Hepatotoxicity (moderate) [1]: 32%
Hepatotoxicity (acute) [2]: 0%
Hepatotoxicity (successful reintroduction) [3]: yes
Hepatotoxicity (comment) [4]: ANGIOSARCOME CHOLESTASE_PROLONGEE CHOLANGITE #CBP PELIOSE
Hepatotoxicity (time to onset) [5]: 1 week - 24 years
Hepatotoxicity (moderate) [6]: 4
Hepatotoxicity (acute) [7]: 30
Hepatotoxicity (cytolytic) [8]: 2
Hepatotoxicity (choleostasis) [9]: 21
Hepatotoxicity (severe hepatitis) [10]: 1
Hepatotoxicity (chronic liver disease) [11]: 0
Hepatotoxicity (cirrhosis) [12]: 2
Hepatotoxicity (granulomatous hepatitis) [13]: 0
Hepatotoxicity (association with vascular disease) [14]: 4
Hepatotoxicity (steatosis) [15]: 0
Hepatotoxicity (malignant tumour) [16]: 10
Hepatotoxicity (benign tumour) [17]: 6

COCCc1ccc(OCC(O)CNC(C)C)cc1 (stereo unspecified) [METOPROLOL]
Hepatotoxicity (moderate) [1]: 32%
Hepatotoxicity (acute) [2]: 0%
Hepatotoxicity (successful reintroduction) [3]: yes
Hepatotoxicity (comment) [4]: ENCEPHALOPATHIE
Hepatotoxicity (time to onset) [5]: 5 days - 17 days
Hepatotoxicity (moderate) [6]: 3
Hepatotoxicity (acute) [7]: 1
Hepatotoxicity (cytolytic) [8]: 1
Hepatotoxicity (choleostasis) [9]: 0
Hepatotoxicity (severe hepatitis) [10]: 0
Hepatotoxicity (chronic liver disease) [11]: 0
Hepatotoxicity (cirrhosis) [12]: 0
Hepatotoxicity (granulomatous hepatitis) [13]: 0
Hepatotoxicity (association with vascular disease) [14]: 0
Hepatotoxicity (steatosis) [15]: 0
Hepatotoxicity (malignant tumour) [16]: 0
Hepatotoxicity (benign tumour) [17]: 0
